Experiment [1] is described as follows: GFP-wavelength compound autofluorescence in cells – imaging, high-content imaging, artefact control, dose response (AID 2124).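 On cell count: cells exposed to compound for 48 hours before fixing.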 Conditions: cells, GFP-channel autofluorescence, high-content imaging; cell count; at 10 µM.
Experiment [2] has as its system cells, GFP-channel autofluorescence, high-content imaging. The experiment is described as above.

SMILES strings stand for the structures. Inconclusive results are not listed. Calls of active or inactive are those of the source. How the calls were made is not given here; tested in MIN6 cells.

For the compound `CCCN1C=CC(=CC=C(C#N)C#N)C=C1`, the cell count in experiment [1] came to 3220 cells. Also, in experiment [2], the concentration giving a half-maximal response (EC50) is 7.84 µM.

As to `Cc1cc2c(C(F)(F)F)cc(=O)oc2c2c1NCCC2`, the cell count in experiment [1] turned out to be 3250 cells. For the same compound, the 50% effective concentration (EC50) in experiment [2] was 6.77 µM.

`N#C/C(=C/c1ccc(N2CCOCC2)o1)c1ccc(Cl)cc1` registered a cell count in experiment [1] of 1320 cells. Moreover, in experiment [2], the 50% effective concentration (EC50) was 7.31 µM.

`CN1C(=O)C(=Cc2ccc(N3CCCCC3)o2)C(=O)N(C)C1=S` gave a cell count in experiment [1] of 2940 cells. In addition, the EC50 in experiment [2] was > 16 µM (inactive).

On to `CCN(CC)c1ccc2cc(/C(N)=N/NC(=O)c3cccs3)c(=O)oc2c1`, for which, in experiment [1], the cell count is 3050 cells. For the same compound, the EC50 in experiment [2] was 8.97 µM.

The compound `O=C(C1=C(O)C(=O)N(c2nccs2)C1c1ccccc1)c1cc2ccccc2o1` (stereo not drawn) yielded a cell count in experiment [1] of 2920 cells. Also, the EC50 in experiment [2] is 8.55 µM.

In experiment [1], `N#C/C(=C\c1ccc(N2CCOCC2)o1)C(=O)NCCc1ccccc1` returned a cell count of 3060 cells. Moreover, in experiment [2], the EC50 was 8.69 µM.

For the compound `Cc1ccc(S(=O)(=O)CCSc2nc(C)cc(C(F)(F)F)c2C#N)cc1`, the cell count in experiment [1] is 2460 cells. Further, the EC50 in experiment [2] is 7.21 µM.

For the compound `CCCCN1C(=O)/C(=C/C=C2\SCCN2C)SC1=S`, in experiment [1], the cell count stood at 2930 cells. Moreover, the 50% effective concentration (EC50) in experiment [2] is 6.67 µM.

Turning to `N#C/C(=C\c1ccc(N2CCOCC2)o1)c1ccccc1`, the cell count in experiment [1] was determined as 2130 cells. Also, the EC50 in experiment [2] was > 16 µM (inactive).

`CN1CC=C2C(C#N)=C(N)C(C#N)(C#N)[C@H](c3ccoc3)[C@H]2C1` registered a cell count in experiment [1] of 1690 cells. Moreover, in experiment [2], the EC50 is > 16 µM (inactive).

As to `CCOC(=O)Cc1csc(NC(=O)c2sc3nc4c(C)cc(C)cc4cc3c2N)n1`, in experiment [1], the cell count was determined as 2560 cells. For the same compound, the EC50 in experiment [2] is 10.9 µM (inactive).

On to `CN(C)c1ccc(/C=C/C(=O)c2c(O)c3ccccc3oc2=O)cc1`, for which the cell count in experiment [1] was 3230 cells. The EC50 in experiment [2] was > 16 µM (inactive).

Regarding `CC(=O)c1c(N2CCOCC2)[nH]c(-c2ccccc2)nc1=S`, in experiment [1], the cell count amounted to 3510 cells. The EC50 in experiment [2] is 1.05 µM.

With `Cc1cc(N2CCCC2)ccc1/C=C1\NC(=S)N(C)C1=O`, in experiment [1], the cell count worked out at 2440 cells. The EC50 in experiment [2] was 7.7 µM.

In the case of `CN1CC=C2C(C#N)=C(N)C(C#N)(C#N)C(c3ccsc3)C2C1` (stereo not drawn), the cell count in experiment [1] was determined as 2400 cells. For the same compound, in experiment [2], the EC50 was > 16 µM (inactive).

On to `O=c1oc2cc(O)ccc2cc1-c1nc2c(s1)CCc1ccccc1-2`, for which the cell count in experiment [1] was determined as 2720 cells. In addition, the EC50 in experiment [2] is 7.42 µM.

In experiment [1], `O=C1c2cccc3c(O)ccc(c23)C(=O)N1Cc1ccco1` came in with a cell count of 2850 cells. Moreover, the EC50 in experiment [2] is 14.6 µM (inactive).

Compound `CCCN1C(=O)/C(=C/c2c(NCCCOC(C)C)nc3c(C)cccn3c2=O)SC1=S` displayed a cell count in experiment [1] of 2790 cells. Besides, in experiment [2], the EC50 was > 16 µM (inactive).

`N#C/C(=C\N1CCN(Cc2ccc3c(c2)OCO3)CC1)c1nc2ccccc2s1` registered a cell count in experiment [1] of 3300 cells. Besides, the EC50 in experiment [2] was 10.7 µM (inactive).

In turn, `CN1CCS/C1=C/C=C1/SC(=S)N(Cc2ccccc2)C1=O` yielded a cell count in experiment [1] of 2970 cells. The 50% effective concentration (EC50) in experiment [2] was 8.87 µM.

On to `COc1ccc(C(=O)c2sc3nc(-c4ccccc4)ccc3c2N)cc1OC`, for which the cell count in experiment [1] came to 2560 cells. Further, the EC50 in experiment [2] is 1.87 µM.

Regarding `N#C/C(=C/c1ccc(N2CCCCC2)o1)c1cccc(F)c1`, in experiment [1], the cell count was determined as 1730 cells. In addition, the EC50 in experiment [2] was 5.32 µM.

Regarding `N#CC1=C(N)C(C#N)(C#N)[C@H](c2ccoc2)[C@H]2CN(Cc3ccccc3)CC=C12`, the cell count in experiment [1] was 2630 cells. Also, the EC50 in experiment [2] was 10.3 µM (inactive).

Turning to `CCN1CC=C2C(C1)C(c1ccc(Cl)s1)C(C#N)=C(N)C2(C#N)C#N` (stereo not drawn), the cell count in experiment [1] turned out to be 3020 cells. In experiment [2], the EC50 was 11.5 µM (inactive).

In the case of `CN1CC=C2C(C#N)=C(N)C(C#N)(C#N)[C@H](c3cccs3)[C@H]2C1`, in experiment [1], the cell count turned out to be 2820 cells. In addition, in experiment [2], the EC50 is > 16 µM (inactive).

With `CCCN1CCc2c(sc(NC(=S)NC(=O)c3ccccc3)c2C#N)C1`, the cell count in experiment [1] turned out to be 3200 cells. Besides, in experiment [2], the EC50 is 13.3 µM (inactive).

In experiment [1], `CN1CC=C2C(C#N)=C(N)C(C#N)(C#N)C(Cc3ccccc3)C2C1` (stereo not drawn) yielded a cell count of 3290 cells. Further, the EC50 in experiment [2] is 13.7 µM (inactive).

In experiment [1], `COc1ccc2nc(SCC(C)=O)c(C#N)cc2c1` displayed a cell count of 2490 cells. In addition, the EC50 in experiment [2] was 7.2 µM.

Compound `Cc1c(N=C2N=C(NC(=O)c3cccs3)c3ccccc32)c(=O)n(-c2ccccc2)n1C` gave a cell count in experiment [1] of 2570 cells. Besides, the EC50 in experiment [2] is 11.8 µM (inactive).

As to `COCCN1C(=O)/C(=C/c2ccc(N3CCCC3)cc2)SC1=S`, the cell count in experiment [1] is 3330 cells. Besides, in experiment [2], the concentration giving a half-maximal response (EC50) is 9.79 µM.

As for `Cc1ccc(-c2cn3nc(-c4ccccc4)c(-c4ccccc4)nc3n2)cc1`, the cell count in experiment [1] is 3200 cells. Besides, the EC50 in experiment [2] is 6.02 µM.

Regarding `COc1ccc(/C=C2\CC/C(=C\c3ccc(OC)cc3OC)C2=O)c(OC)c1`, the cell count in experiment [1] amounted to 3090 cells. Also, in experiment [2], the EC50 is 6.73 µM.

`CCOC(=O)c1sc2cc([N+](=O)[O-])cc(SCC(C)C)c2c1N` had a cell count in experiment [1] of 3070 cells. The EC50 in experiment [2] was 1.24 µM.

These data come from PubChem BioAssay AID2124 (Sanford-Burnham Center for Chemical Genomics, 2009).
